Measured values taken from ChEMBL document CHEMBL1141197, “Interaction of papain-like cysteine proteases with dipeptide-derived nitriles” (J Med Chem, 2005).

Tests used:
[1] = target: Cathepsin S (Homo sapiens, UniProt P25774); assay: Inhibitory activity against human cathepsin S using Z-Val-Val-Arg-NHMec substrate
[2] = target: T1, Papain (Carica papaya, UniProt P00784); assay: Inhibitory activity against papain using Z-Phe-Arg-NHNp substrate
T1 sequence (P00784 whole entry): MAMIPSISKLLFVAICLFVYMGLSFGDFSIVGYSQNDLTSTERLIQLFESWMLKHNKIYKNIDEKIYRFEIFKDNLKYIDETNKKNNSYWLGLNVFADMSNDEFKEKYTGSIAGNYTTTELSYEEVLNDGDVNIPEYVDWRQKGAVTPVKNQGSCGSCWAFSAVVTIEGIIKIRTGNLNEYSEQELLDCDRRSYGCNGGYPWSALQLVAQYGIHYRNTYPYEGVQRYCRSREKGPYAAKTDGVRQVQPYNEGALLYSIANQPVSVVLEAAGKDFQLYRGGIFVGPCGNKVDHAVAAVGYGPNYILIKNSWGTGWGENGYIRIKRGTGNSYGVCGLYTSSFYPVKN

[3] = target: T2, Cathepsin K (Homo sapiens, UniProt P43235); assay: Inhibitory activity against human cathepsin K using Z-Leu-Arg-NHMec substrate
T2 sequence (P43235 whole entry): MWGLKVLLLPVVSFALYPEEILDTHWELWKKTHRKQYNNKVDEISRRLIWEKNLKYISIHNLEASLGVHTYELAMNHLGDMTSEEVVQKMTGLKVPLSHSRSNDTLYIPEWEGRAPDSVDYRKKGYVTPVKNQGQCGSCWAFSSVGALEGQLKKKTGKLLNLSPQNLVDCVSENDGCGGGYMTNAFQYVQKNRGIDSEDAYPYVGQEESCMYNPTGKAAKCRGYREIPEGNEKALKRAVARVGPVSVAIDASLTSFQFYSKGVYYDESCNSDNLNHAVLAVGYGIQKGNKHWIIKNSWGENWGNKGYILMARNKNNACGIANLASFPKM

[4] = target: Procathepsin L (Bos taurus, UniProt P25975); assay: Inhibitory activity against bovine cathepsin L using Z-Phe-Arg-NHMec substrate
Chain of Procathepsin L (P25975 whole entry): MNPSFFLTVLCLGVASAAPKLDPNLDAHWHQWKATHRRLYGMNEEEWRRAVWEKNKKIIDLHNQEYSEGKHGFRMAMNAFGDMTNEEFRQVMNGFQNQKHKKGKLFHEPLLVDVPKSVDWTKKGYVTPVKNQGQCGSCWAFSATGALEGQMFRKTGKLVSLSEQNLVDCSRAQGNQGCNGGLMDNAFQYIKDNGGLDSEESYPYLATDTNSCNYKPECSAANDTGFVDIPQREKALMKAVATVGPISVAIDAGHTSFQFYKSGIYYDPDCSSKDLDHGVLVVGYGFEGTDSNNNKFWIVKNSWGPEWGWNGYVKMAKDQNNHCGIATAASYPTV

Chain of Cathepsin S (P25774 whole entry): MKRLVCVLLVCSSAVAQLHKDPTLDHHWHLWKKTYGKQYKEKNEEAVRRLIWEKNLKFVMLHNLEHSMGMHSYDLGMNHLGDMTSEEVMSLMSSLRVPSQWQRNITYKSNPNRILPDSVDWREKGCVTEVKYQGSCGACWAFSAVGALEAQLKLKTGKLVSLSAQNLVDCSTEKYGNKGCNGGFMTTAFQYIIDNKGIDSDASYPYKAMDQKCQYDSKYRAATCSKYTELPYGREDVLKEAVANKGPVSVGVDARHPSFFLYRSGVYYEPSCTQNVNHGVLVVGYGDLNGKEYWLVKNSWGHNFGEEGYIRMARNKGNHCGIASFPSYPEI

SMILES	Ki [1] [µM]	Ki [2] [µM]	Ki [3] [µM]	Ki [4] [µM]
CC[C@@H](C)[C@H](NC(=O)OC(C)(C)C)C(=O)NCC#N	4.1	26	5.8	4.9
CC(C)(C)OC(=O)N[C@@H](COCc1ccccc1)C(=O)NCC#N	2.2	11	> 100	33
CC(=O)N[C@@H](Cc1ccccc1)C(=O)NCC#N	1.4	0.38	7.5	5.8
CC(C)(C)OC(=O)N[C@@H](Cc1ccccc1-c1ccccc1)C(=O)NCC#N	> 100	299	> 100	> 100
C=CCNC(=O)[C@H](Cc1ccccc1)NC(=O)OC(C)(C)C	> 100	497	> 1000	> 1000
CC(C)(C)OC(=O)N[C@@H](CCc1ccccc1)C(=O)NCC#N	1.9	12	8.5	9.4
CC(C)[C@H](NC(=O)OC(C)(C)C)C(=O)NCC#N	6.2	2	6.5	2.8
CC(C)(C)OC(=O)NCC(=O)NCC#N	> 1000	> 3000	> 1000	> 1000
N#CCNC(=O)CNC(=O)OCc1ccccc1	> 1000	1600	> 1000	> 1000
CC(C)(C)OC(=O)N1CCC[C@H]1C(=O)NCC#N	> 100	537	> 100	> 100
CC(C)(C)OC(=O)N[C@@H](Cc1ccsc1)C(=O)NCC#N	0.76	0.57	2.1	4.5
C#CCNC(=O)[C@H](Cc1ccccc1)NC(=O)OC(C)(C)C	> 100	497	> 1000	> 1000
CC(C)C[C@H](NC(=O)OC(C)(C)C)C(=O)NCC#N	0.13	2	0.12	1.2
CC(C)C[C@H](NC(=O)OCc1ccccc1)C(=O)NCC#N	0.13	3.1	0.035	0.75
CC(=O)CNC(=O)[C@H](Cc1ccccc1)NC(=O)OC(C)(C)C	2.1	187	2.1	2.3
N#CCNC(=O)[C@H](Cc1ccccc1)NC(=O)c1ccc(-c2ccccc2)cc1	0.24	0.016	0.3	0.55
CC(C)(C)OC(=O)N[C@@H](Cc1cccc2ccccc12)C(=O)NCC#N	1.3	28	66	1.7
N#CCNC(=O)CNS(=O)(=O)c1ccc2ccccc2c1	2.5	10	> 100	25
CC(C)(C)OC(=O)N[C@@H](Cc1ccccc1)C(=O)NCC#N	0.62	0.26	4.1	
CC(C)(C)OC(=O)N[C@@H](Cc1ccccc1Br)C(=O)NCC#N	0.61	0.46	4.2	1.1
CC(C)(C)OC(=O)N[C@@H](Cc1ccccc1F)C(=O)NCC#N	0.77	0.4	3.3	0.47
CC(C)(C)OC(=O)N[C@@H](Cc1ccc2ccccc2c1)C(=O)NCC#N	0.083	0.021	83	0.12
CC(C)(C)OC(=O)N[C@@H](Cc1ccc(-c2ccccc2)cc1)C(=O)NCC#N	0.44	0.016	16	0.34
CC[C@H](NC(=O)OC(C)(C)C)C(=O)NCC#N	28	5.4	5	> 100
